PubChem BioAssay AID248 (DTP/NCI, 2004)
Where “and” joins values, the source holds several entries; their conditions need not be identical. Identical values can stand only once. Inconclusive results and toxic doses are left out.

Tested on: L1210 leukemia ip in BDF1 mice, survival T/C
Assay: NCI In Vivo Anticancer Drug Screen. Data for tumor model L1210 Leukemia (intraperitoneal) in B6D2F1 (BDF1) mice
Details: endpoint: mean survival time, higher = longer survival
Procedure, shortened: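 Tumor was transplanted into mice, which were then dosed with test compound or vehicle alone. Survival was recorded for each group, and the treated figure was expressed relative to the control figure.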

[1] = dose: 100.0 mg/kg/injection, schedule: Q04DX003 (ip), vehicle: Klucel (hydroxypropylcellulose) (HPC)
[2] = dose: 200.0 mg/kg/injection, schedule: Q04DX003 (ip), vehicle: Klucel (hydroxypropylcellulose) (HPC)
[3] = dose: 400.0 mg/kg/injection, schedule: Q04DX003 (ip), vehicle: Klucel (hydroxypropylcellulose) (HPC)
[4] = dose: 100.0 mg/kg/injection, schedule: Q01DX001 (ip), vehicle: saline
[5] = dose: 200.0 mg/kg/injection, schedule: Q01DX001 (ip), vehicle: saline
[6] = dose: 400.0 mg/kg/injection, schedule: Q01DX001 (ip), vehicle: saline
[7] = dose: 100.0 mg/kg/injection, schedule: Q01DX009 (ip), vehicle: Klucel (hydroxypropylcellulose) (HPC)
[8] = dose: 200.0 mg/kg/injection, schedule: Q01DX009 (ip), vehicle: Klucel (hydroxypropylcellulose) (HPC)
[9] = dose: 400.0 mg/kg/injection, schedule: Q01DX009 (ip), vehicle: Klucel (hydroxypropylcellulose) (HPC)

With `CC1=NCCC[N-]CC[N-]CCCN=C1C.[Ni+2].[O-][Cl+3]([O-])([O-])O` the T/C (dose: 100.0 mg/kg/injection, schedule: Q04DX002 (ip), vehicle: saline) was 94 % of control, the T/C (dose: 200.0 mg/kg/injection, schedule: Q04DX002 (ip), vehicle: saline) was 94 % of control and the T/C (dose: 400.0 mg/kg/injection, schedule: Q04DX002 (ip), vehicle: saline) was 98 % of control.
For `COC(=O)C(C)CN1CCCCC1` (stereo not drawn), the T/C (dose: 50.0 mg/kg/injection, schedule: Q01DX009 (ip), vehicle: saline) was 101 % of control, the T/C (dose: 100.0 mg/kg/injection, schedule: Q01DX009 (ip), vehicle: saline) was 97 % of control and the T/C (dose: 100.0 mg/kg/injection, schedule: Q04DX003 (ip), vehicle: saline) was 102 % of control. For the same compound, the T/C (dose: 200.0 mg/kg/injection, schedule: Q01DX009 (ip), vehicle: saline) was 101 % of control and the T/C (dose: 200.0 mg/kg/injection, schedule: Q04DX003 (ip), vehicle: saline) was 105 % of control.
In the case of `CC12CCN=C1c1ccc3cc(O)ccc3c1CC2` (stereo not drawn), the T/C (dose: 100.0 mg/kg/injection, schedule: Q04DX003 (sc), vehicle: steriod suspending solution) is reported as 93 % of control, the T/C (dose: 200.0 mg/kg/injection, schedule: Q04DX003 (sc), vehicle: steriod suspending solution) is reported as 107 % of control and the T/C (dose: 400.0 mg/kg/injection, schedule: Q04DX003 (sc), vehicle: steriod suspending solution) is reported as 96 % of control.
In the case of `NC(N)=NCCCCNCCCN=C(N)N`, the T/C (dose: 75.0 mg/kg/injection, schedule: Q01DX001 (ip), vehicle: saline) is reported as 98 % of control and the T/C (dose: 150.0 mg/kg/injection, schedule: Q01DX001 (ip), vehicle: saline) is reported as 107 % of control.
`CC(C)=CCC(CCN1CCCC1)(C(N)=O)c1cccc2ccccc12` (stereo not drawn) was tested, and the T/C (dose: 5.0 mg/kg/injection, schedule: Q01DX009 (ip), vehicle: Klucel (hydroxypropylcellulose) (HPC)) was 102 % of control, the T/C (dose: 5.0 mg/kg/injection, schedule: Q04DX003 (ip), vehicle: Klucel (hydroxypropylcellulose) (HPC)) was 98 % of control and the T/C (dose: 10.0 mg/kg/injection, schedule: Q01DX009 (ip), vehicle: Klucel (hydroxypropylcellulose) (HPC)) was 95 % of control. For the same compound, the T/C (dose: 10.0 mg/kg/injection, schedule: Q04DX003 (ip), vehicle: Klucel (hydroxypropylcellulose) (HPC)) was 104 % of control, the T/C (dose: 20.0 mg/kg/injection, schedule: Q01DX009 (ip), vehicle: Klucel (hydroxypropylcellulose) (HPC)) was 98 % of control and the T/C (dose: 20.0 mg/kg/injection, schedule: Q04DX003 (ip), vehicle: Klucel (hydroxypropylcellulose) (HPC)) was 104 % of control.
With `N#Cc1c(C#N)c(N)n(N)c1N` the T/C (dose: 200.0 mg/kg/injection, schedule: Q04DX002 (ip), vehicle: Klucel (hydroxypropylcellulose) (HPC)) was 114 % of control.
For `CC(C)Nc1nc(NC(C)C)nc(NC(C)C)n1`, the T/C [1] was 92 % of control, the T/C [2] was 87 % of control and the T/C [3] was 90 % of control.
With `Cc1ccc(N2CCN(CC(O)COc3ccccc3Cl)CC2)cc1` (stereo not drawn) the T/C [4] was 95 % of control, the T/C [5] was 95 % of control and the T/C [6] was 95 % of control.
With `C[N+](C)=Cc1c[nH]c2ccccc12` the T/C (dose: 9.38 mg/kg/injection, schedule: Q01DX001 (ip), vehicle: steriod suspending solution) was 98 % of control, the T/C (dose: 18.75 mg/kg/injection, schedule: Q01DX001 (ip), vehicle: steriod suspending solution) was 94 % of control and the T/C (dose: 37.5 mg/kg/injection, schedule: Q01DX001 (ip), vehicle: steriod suspending solution) was 98 % of control.
With `O=C(CBr)c1ccccc1` the T/C (dose: 10.0 mg/kg/injection, schedule: Q04DX003 (ip), vehicle: saline with Tween-80) was 93 % of control and the T/C (dose: 20.0 mg/kg/injection, schedule: Q04DX003 (ip), vehicle: saline with Tween-80) was 97 % of control.
In the case of `C=CCNc1ccnc(SCc2ccccc2)n1`, the T/C (dose: 100.0 mg/kg/injection, schedule: Q01DX009 (ip), vehicle: gum acacia) is reported as 93 % of control, the T/C (dose: 100.0 mg/kg/injection, schedule: Q04DX003 (ip), vehicle: gum acacia) is reported as 97 % of control and the T/C (dose: 200.0 mg/kg/injection, schedule: Q01DX009 (ip), vehicle: gum acacia) is reported as 110 % of control. For the same compound, the T/C (dose: 200.0 mg/kg/injection, schedule: Q04DX003 (ip), vehicle: gum acacia) was 97 % of control, the T/C (dose: 400.0 mg/kg/injection, schedule: Q01DX009 (ip), vehicle: gum acacia) was 97 % of control and the T/C (dose: 400.0 mg/kg/injection, schedule: Q04DX003 (ip), vehicle: gum acacia) was 92 % of control.
`CC(=O)N(C)c1ccc(NC(=O)/C=C/c2ccccc2)cc1` was tested, and the T/C [7] was 95 % of control, the T/C [8] was 101 % of control and the T/C [9] was 105 % of control.
With `CC[n+]1cccc(NC(=O)c2ccc(NC(=O)c3ccc(C(=O)Nc4ccc5c(ccc[n+]5CC)c4)cc3)cc2)c1` the T/C (dose: 0.12 mg/kg/injection, schedule: Q01DX015 (oral), vehicle: alkali diluted with saline) was 90 % of control, the T/C (dose: 0.25 mg/kg/injection, schedule: Q01DX015 (oral), vehicle: alkali diluted with saline) was 90 % of control and the T/C (dose: 0.5 mg/kg/injection, schedule: Q01DX015 (oral), vehicle: alkali diluted with saline) was 101 % of control. The T/C (dose: 0.55 mg/kg/injection, schedule: Q01DX Z (ip), vehicle: carboxymethylcellulose (CMC)) was 107 % of control, the T/C (dose: 1.0 mg/kg/injection, schedule: Q01DX015 (oral), vehicle: alkali diluted with saline) was 112 % of control and the T/C (dose: 2.2 mg/kg/injection, schedule: Q01DX Z (ip), vehicle: carboxymethylcellulose (CMC)) was 181 % of control. The T/C (dose: 3.0 mg/kg/injection, schedule: Q01DX015 (ip), vehicle: alkali diluted with saline) was 164 % of control, the T/C (dose: 4.4 mg/kg/injection, schedule: Q01DX Z (ip), vehicle: carboxymethylcellulose (CMC)) was 165 % of control and the T/C (dose: 6.0 mg/kg/injection, schedule: Q01DX015 (ip), vehicle: alkali diluted with saline) was 120 % of control. The T/C (dose: 10.0 mg/kg/injection, schedule: Q01DX Z (ip), vehicle: carboxymethylcellulose (CMC)) was 113 % of control, the T/C (dose: 11.0 mg/kg/injection, schedule: Q01DX001 (ip), vehicle: alkali diluted with saline) was 118 % of control and the T/C (dose: 15.0 mg/kg/injection, schedule: Q01DX Z (ip), vehicle: carboxymethylcellulose (CMC)) was 110 % of control. For the same compound, the T/C (dose: 16.0 mg/kg/injection, schedule: Q01DX001 (ip), vehicle: alkali diluted with saline) was 150 % of control and the T/C (dose: 25.0 mg/kg/injection, schedule: Q01DX015 (ip), vehicle: alkali diluted with saline) was 102 % of control.
With `O=c1[nH]c2ccccc2c(=O)o1` the T/C [4] was 96 % of control, the T/C [5] was 89 % of control and the T/C [6] was 89 % of control.
With `COCCCNP1(=O)OCC(C)([N+](=O)[O-])CO1` (stereo not drawn) the T/C (dose: 50.0 mg/kg/injection, schedule: Q01DX001 (ip), vehicle: carboxymethylcellulose (CMC)) was 100 % of control, the T/C (dose: 100.0 mg/kg/injection, schedule: Q01DX001 (ip), vehicle: carboxymethylcellulose (CMC)) was 94 % of control and the T/C (dose: 200.0 mg/kg/injection, schedule: Q01DX001 (ip), vehicle: carboxymethylcellulose (CMC)) was 94 % of control. The T/C (dose: 400.0 mg/kg/injection, schedule: Q01DX001 (ip), vehicle: carboxymethylcellulose (CMC)) was 92 % of control.
With `O=C(O)COc1ccccc1OCC(=O)O` the T/C [7] was 98 % of control, the T/C [1] was 94 % of control and the T/C [8] was 100 % of control. The T/C [2] was 100 % of control and the T/C [3] was 98 % of control.
With `C#CC1(O)CCC2C3CCc4cc(O)ccc4C3CCC21C` (stereo not drawn) the T/C (dose: 50.0 mg/kg/injection, schedule: Q01DX001 (sc), vehicle: steriod suspending solution) was 94 % of control, the T/C (dose: 100.0 mg/kg/injection, schedule: Q01DX001 (sc), vehicle: steriod suspending solution) was 92 % of control and the T/C (dose: 200.0 mg/kg/injection, schedule: Q01DX001 (sc), vehicle: steriod suspending solution) was 106 % of control. For the same compound, the T/C (dose: 400.0 mg/kg/injection, schedule: Q01DX001 (sc), vehicle: steriod suspending solution) was 97 % of control.
With `O=C(O)CCC1NC(=O)NC1=O` (stereo not drawn) the T/C [4] was 96 % of control, the T/C [5] was 96 % of control and the T/C [6] was 91 % of control.
For `CCC(=O)OC1(c2ccccc2)CCN(CCC(=O)c2ccccc2)CC1`, the T/C (dose: 25.0 mg/kg/injection, schedule: Q04DX003 (ip), vehicle: Klucel (hydroxypropylcellulose) (HPC)) was 103 % of control, the T/C (dose: 50.0 mg/kg/injection, schedule: Q04DX003 (ip), vehicle: Klucel (hydroxypropylcellulose) (HPC)) was 101 % of control and the T/C [1] was 95 % of control and 98 % of control.
In the case of `CCCCCCCCCCCC(=O)CCCCC`, the T/C (dose: 100.0 mg/kg/injection, schedule: Q01DX009 (ip), vehicle: other) is reported as 91 % of control, the T/C (dose: 200.0 mg/kg/injection, schedule: Q01DX009 (ip), vehicle: other) is reported as 94 % of control and the T/C (dose: 400.0 mg/kg/injection, schedule: Q01DX009 (ip), vehicle: other) is reported as 91 % of control.
With `CC1=C/C(=N\N=C2/C=C(C)CC(C)(C)C2)CC(C)(C)C1` the T/C [7] was 95 % of control, the T/C [8] was 105 % of control and the T/C [9] was 100 % of control.
In the case of `S=C(Nc1ccccc1)Nc1nccs1`, the T/C [4] is reported as 104 % of control, the T/C [1] is reported as 105 % of control and the T/C [5] is reported as 101 % of control. The T/C [2] was 101 % of control, the T/C [6] was 101 % of control and the T/C [3] was 103 % of control.
